The values below come from patent publication US20070202047A1, “Polyamine-substituted ligands for use as contrast agents” (priority 2006, published 2007).

Series [1] deals with B16 melanoma cells. In words: Intracellular uptake of gadolinium complexes (ICP-MS). As to conditions: for factor of higher cellular uptake in B16 melanoma vs. the hepatoma cells: 24-h incubation (FIG. 2A). It is filed as cell-based, mouse. On the procedure: (§1) Cell culture. B16 melanoma cells (mouse) and MH3924A Morris hepatoma cells (rat) were obtained from the German Cancer Research Center (DKFZ) tumor bank and grown at 37° C. as stock cultures in RPMI 1640 supplemented with 10% fetal calf serum and 1% glutamine as standard medium under a 5% CO2 atmosphere (all components: Pan Biotech GmbH, Aidenbach, Germany). For contrast agent uptake studies 10^6 cells were inoculated into 25 cm^2 culture flasks (BD Biosciences, Bedford, USA) and grown for 24 h in 10 mL of the standard culture medium. Cells were then incubated for an additional 24 h (1 h for temperature dependence studies) with fresh medium containing 0, 1, 2.5, 5 or 10 μM of the selected gadolinium complex (three replicate flasks for each incubation). Afterwards the medium was removed, cells were trypsinated, washed twice, resuspended in culture medium and counted (typical yields: 3.5-6 million cells). For comparison 2.5×10^5 human melanocytes (Promo Cell, Heidelberg, Germany) were incubated for 24 h with melanocyte growth medium (Promo Cell, Heidelberg, Germany) containing 0, 1, 2.5, 5 or 10 μM of the selected gadolinium complex (two replicate flasks for each incubation). The work up procedure was as described above typically yielding 2.5×10^5 cells. Cultured human hepatocytes (Cytonet GmbH, Weinheim, Germany) embedded in a collagen matrix in a 12 well microtiter plate, with 6×10^5 viable cells per well were incubated for 24 h in hepatocyte growth medium (Cytonet GmbH, Weinheim, Germany) containing the same concentration series of selected gadolinium complexes. Afterwards the medium was removed, cells were separated using collagenase (Roche Diagnostics, Mannheim, Germany). After digestion the cells were washed twice with PBS, resuspended in culture medium and counted (typical yields: 6×10^5 cells per tube). The intracellular gadolinium content was determined by ICP-MS as described below.
(§2) ICP-MS. Samples containing the above mentioned number of harvested cells were digested with 50% concentrated HNO3 (Superselect; Merck, Darmstadt, Germany) under microwave heating with a Mars 5 apparatus (CEM GmbH, Kamp-Lintfort, Germany). To each sample 100 μL of an aqueous solution of rhodium chloride (1 μg/mL) were added so that Rh-103 could be used as an internal quantification standard. Gd-160 measurements were performed with the ICP-MS instrument mentioned above. The gadolinium concentrations were determined using standard curves created prior to cell analyses. For each uptake incubation condition triplicate cell samples were analyzed, and Gd content for each sample was recorded as the mean of two MS determinations.
(§3) Intracellular Uptake of Gadolinium Complexes. B16 melanoma and MH3924A hepatoma cells as well as human melanocytes and hepatocytes were incubated for 24 h in the presence of the gadolinium complexes shown in FIG. 1, using concentrations in the range of 1-10 μM. Incubations with the unsubstituted [Gd(DTPA)(H2O)]^2−complex (Magnevist®) served as controls. Following cell harvest and hydrolysis, inductively coupled plasma mass spectrometry (ICP-MS) with direct detection of gadolinium was used to quantitate complex uptake (triplicate cultures for each incubation).
(§4) Cell Uptake Studies. A493 (human kidney), B16 melanoma cells (mouse), HeLa (human cervix), MCF-7 (human breats), MH3924A (Morris hepatoma) cells (rat) and 3T3 NIH (mouse fibroblasts) were obtained from the DKFZ tumor cell collection. 3×10^6 cells of each cell type were grown for 24 hours in culture flasks. Afterwards they were incubated for 1 hour in 10 mL culture media containing 0, 10, 50 and 100 μM of Gd-2.2. Gd-3.2 or Gd-4.2. Afterwards the medium was removed, the cells were trypsinated, washed twice, resuspended in culture medium and counted. The gadolinium uptake was determined in triplicate. […] cells were incubated with 0, 1, 2.5, 5 and 10 μM of the Gd-1.2. and Gd-5.2. for 24 h. […]

For series [2], the system named is MH3924A cells. In words: Polyamine transport inhibition (binding inhibition assay with benzyl viologen). It is filed as cell-based, rat. Particulars: 25 fold molar excess of benzyl viologen over 1 μM Gd-5.1 or Gd-6.1, MH3924A. On the procedure:
Polyamine transport inhibition. 10^6 MH3924A cells were inoculated into 25 cm^2 culture flasks (BD Biosciences, Bedford, USA) and grown for 24 h in 10 mL of the standard culture medium. Cells were then incubated for an additional 24 h with fresh medium containing 1 μM of Gd-5.1. or Gd-6.1. and 0, 1, 10, 25, 50 or 100 μM of the polyamine uptake inhibitor benzyl viologen (34, 35). Afterwards the medium was removed, cells were trypsinated, washed twice, resuspended in culture medium and counted (typical yields: 3.5-6 million cells). The gadolinium content of the cells was determined by ICP-MS as described below.
as §2

The subject of series [3] is MH3924A Morris hepatoma cells. As to the kind of experiment: Intracellular uptake of gadolinium complexes (ICP-MS). It is filed as cell-based, rat. How it is done: as §1, §2, §3, §4
A short description of series [4]: Complex stability. Particulars: method of Sherry et al. The format is physicochemical. How it is done:
Complex stability. The stability constants were determined using a method of Sherry et al. (39).

A short description of series [5]: Biodistribution and excretion in tumor-bearing ACI rats. The format is in vivo, rat. On the procedure: (§5) Animal models. For in vivo tumor studies 2×10^6 MH3924A tumor cells were injected subcutaneously into the right thigh of male ACI rats (Charles River, Sulzfeld, Germany) weighing 220 to 260 g. All animal experiments were performed in compliance with the German Animal Protection Laws (Permission 35-9185.81/G-7-03, Reg.-Praesidium, Karlsruhe, Germany).
Biodistribution and excretion data. At 14 days after tumor inoculation, when tumors had reached a diameter of ca. 5-6 mm, the biodistribution experiments were initiated. Each animal (210-250 g) was given an intravenous tail-vein injection of […] Magnevist® (Schering, Berlin, Germany) or […] of Gd-5.1. or Gd-6.1. 1 h and 24 hs post-injection (p.i.), the animals were weighed, sacrificed by cervical dislocation and dissected. Organs or tissues were blotted dry and weighed. Samples containing 100-500 mg of the tumor or organs were digested with concentrated HNO3 (Superselect; Merck, Darmstadt, Germany) and H2O2 under microwave heating with a Mars 5 apparatus (CEM GmbH, Kamp-Lintfort, Germany). To each sample 100 μL of an aqueous solution of rhodium chloride (1 μg/mL) were added so that Rh-103 could be used as an internal quantification standard. Gd-160 measurements were performed with the ICP-MS instrument mentioned above. The gadolinium concentrations were determined using standard curves created prior to tissue analyses. The results were expressed as % ID/g tissue. Urine and faeces were gathered in order to measure the excreted amount of Gd(III).

Series [6] has as its system subcutaneous MH3924A tumor. In words: MRI of ACI rats bearing a subcutaneous MH3924A tumor. As to conditions: 24 h post Gd, 0.1 mmol/kg i.v., 2.35 T. The format is in vivo, rat. How it is done: as §5
MRI. At 25 days after inoculation, when tumors had reached a diameter of ca. 10-15 mm, the MR imaging experiments were initiated. ACI rats were anesthetized by intravenous injection of ketamin (Ketanest®, 0.1 mg/g body wt.; Parke-Davis, Berlin, Germany). Then a dose of 0.1 mmol/kg Magnevist® or Gadovist® (Schering, Berlin, Germany) or one of the synthesized agents Gd-3.1., Gd-5.1. or Gd-6.1. was injected intravenously into a lateral tail vein. For one experiment a higher dose (0.36 mmol/kg) of Magnevist® was used. Individual rats were examined by MRI at 1 h and 24 h post Gd, in the case of Magnevist® also at ca. 15 min post Gd. Proton imaging studies were performed at 2.35 T (100.3 MHz) with a Biospec 24/40 instrument (Bruker BioSpin MRI, Ettlingen, Germany). […] Two transaxial multislice imaging protocols were applied with a field of view of 70×70 mm, 128 time-domain data points, 96 phase-encoding steps, and 16 slices of 2 mm thickness. A multi-spin-echo sequence was used for proton-density and T2-weighted images (repetition time TR=2 s, 12 echoes with echo times TE of 8, 16, 24, . . . 96 ms, number of averages=1), and a spoiled gradient-echo sequence was used for T1-weighted imaging (TR=212 ms, TE=5 ms, flip angle=60°, number of averages=3). The data were Fourier transformed to give a 128×128 image matrix with 0.55 mm pixel resolution. Analogous T1-weighted images with coronal slices were acquired with a field of view of 80×80 mm and 3-mm slice thickness.
Imaging viewing, ROI analysis and export of TIFF files was performed with the freeware MRIcro from Chris Rorden (http://people.cas.sc.edu/rorden/mricro.html).

Setting [7] is: 1 h post i.v. injection, one ACI rat, scaled to Gd dose of 100 μmol/kg.

Entries after “also recorded” stand apart in the source; their conditions may differ.

Take `CCCCCCCCCNC(=O)CN(CCN(CCN(CC(=O)[O-])CC(=O)NCCN(CC)CC)CC(=O)[O-])CC(=O)[O-].[Gd+3]` [Gd-4.1]: the “intracellular uptake (neglectable, near the detection limit)” value in series [1] (24-h incubation, cell line and concentration not stated) worked out at 0.0036 fmol/cell.
With `c1ccc(C[n+]2ccc(-c3cc[n+](Cc4ccccc4)cc3)cc2)cc1` [benzyl viologen], the “inhibition of Gd complex uptake” value in series [2] was “up to 90%”.
Regarding `CCN(CC)CCNC(=O)CN(CCN(CCN(CC(=O)[O-])CC(=O)NCCN(CC)CC)CC(=O)[O-])CC(=O)[O-].[Gd+3]` [Gd-2.1], the “factor of higher cellular uptake in B16 melanoma vs. the hepatoma cells” value in series [1] is about 1.72.
Consider `NCCCCN(CCCNCCCN)C(=O)CN(CCN(CCN(CC(=O)[O-])CC(=O)N(CCCCN)CCCNCCCN)CC(=O)[O-])CC(=O)[O-].[Gd+3]` [Gd-5.2], for which the “intracellular uptake of gadolinium complex” value is 0.03 fmol/cell in series [1] (B16 melanoma cells, 24 h incubation, 1-10 μM (concentration not given)) and 0.3 fmol/cell in series [3] (MH3924A, 24 h incubation, 1-10 μM (concentration not given)). Also, in series [4], the complex stability constant was 4.22×10^15.
As for `CCN(CC)CCNC(=O)c1ccc(NC(=O)CN(CCN(CCN(CC(=O)[O-])CC(=O)Nc2ccc(C(=O)NCCN(CC)CC)cc2)CC(=O)[O-])CC(=O)[O-])cc1.[Gd+3]` [Gd-1.1], in series [1], the “factor of higher cellular uptake in B16 melanoma vs. the hepatoma cells” value is given as about 2.2. The “intracellular uptake of gadolinium complex” value in series [3] (MH3924A cells, 24-h incubation, 10 μM) is “ca. 0.062 fmol/cell”.
For the compound `CCN(CC)CCNC(=O)c1ccc(NC(=O)CN2CCN(CC(=O)[O-])CCN(CC(=O)[O-])CCN(CC(=O)[O-])CC2)cc1.[Gd+3]` [Gd-1.2], in series [3] (B16 and MH3924A, 24 h incubation, 1-10 μM), the “relative uptake (in words)” value is recorded as “sufficient for MRI imaging purposes but was the lowest of all tested complexes”.
As to `NCCCNCCCCN(CCCN)C(=O)CN1CCN(CC(=O)[O-])CCN(CC(=O)[O-])CCN(CC(=O)[O-])CC1.[Gd+3]` [Gd-4.2], the “relative uptake (in words)” value in series [3] (MH3924A and B16 melanoma cells, 1 h incubation, 100 μM) was “comparable with the uptake of Gd-2.2., but somewhat lower; also recorded: lower than uptake of Gd-3.2. and Gd-2.2., but still sufficient for MRI imaging”.
In the case of `CNC[C@H](O)[C@@H](O)[C@H](O)[C@H](O)CO.CNC[C@H](O)[C@@H](O)[C@H](O)[C@H](O)CO.O=C([O-])CN(CCN(CC(=O)[O-])CC(=O)O)CCN(CC(=O)[O-])CC(=O)O.[Gd+3]` [Magnevist, gadopentetate dimeglumine, reference compound], the “intracellular uptake (below ICP-MS detection limit)” value in series [1] (B16 melanoma cells, 24-h incubation, 1-10 μM) was under 0.00002 fmol/cell. Further, the “intracellular uptake (below ICP-MS detection limit)” value in series [1] (B16 melanoma cells, 24-h incubation, 1-10 μM, listed as [Gd(DTPA)(H2O)]^2−) is on record as under 0.0002 fmol/cell. For the same compound, the “intracellular uptake (below ICP-MS detection limit)” value in series [3] (MH3924A cells, 24-h incubation, 1-10 μM, listed as [Gd(DTPA)(H2O)]^2−) is listed as under 0.0002 fmol/cell. Also, in series [5] (setting [7]), the “Gd concentration, Blood” value turned out to be 4.8 nmol/g; the “Gd concentration, Bone (femur)” value came to 0.8 nmol/g; the “Gd concentration, Bone Marrow (femur)” value is on record as 1.5 nmol/g; the “Gd concentration, Brain” value was determined as 0.4 nmol/g. Further, in series [5] (setting [7]), the “Gd concentration, Kidney (+urine)” value was found to be 40.7 nmol/g; the “Gd concentration, Liver” value is listed as 3.0 nmol/g; the “Gd concentration, Lung” value turned out to be 4.1 nmol/g; the “Gd concentration, Muscle (femur)” value was found to be 1.3 nmol/g. Further, in series [5] (setting [7]), the “Gd concentration, Small Intestine” value amounted to 1.8 nmol/g; the “Gd concentration, Spleen” value is reported as 1.5 nmol/g; the “Gd concentration, Tumor (MH3924A)” value is recorded as 3.1 nmol/g; the “Gd concentration, Urine (cumulative)” value was 25805.3 nmol/g. The “gadolinium found in the urine” value in series [5] (one hour post injection, ACI rat) stood at 88%. Also, the “contrast ratio tumor vs. muscle tissue, T1 weighting” value in series [6] is reported as “no contrast with T1 weighting was achieved”.
With `O.O=C([O-])CN1CCN(CC(=O)[O-])CCN(CC(=O)[O-])CCN(CC(=O)[O-])CC1.[Gd+3]` [[Gd(DOTA)(H2O)]^−, reference compound], the “intracellular uptake (below ICP-MS detection limit)” value is recorded as under 0.0002 fmol/cell in series [1] (B16 melanoma cells, control incubation of Example 2) and under 0.0002 fmol/cell in series [3] (MH3924A cells, control incubation of Example 2).
